Source: article PMC8964799, “Inhibition of triple negative breast cancer-associated inflammation, tumor growth and brain colonization by targeting monoacylglycerol lipase” (Scientific Reports, 2022)

Experiments:
[1] = biological target: T1, human monoacylglycerol lipase (hMAGL) (Homo sapiens, UniProt Q99685); test: target-based real-time 1H NMR (chemical shift perturbation, covalent adduct formation and reactivation; residence time); type: binding
T1 construct: gene MGLL; highly purified recombinant hMAGL
T1 sequence (Q99685 1-303): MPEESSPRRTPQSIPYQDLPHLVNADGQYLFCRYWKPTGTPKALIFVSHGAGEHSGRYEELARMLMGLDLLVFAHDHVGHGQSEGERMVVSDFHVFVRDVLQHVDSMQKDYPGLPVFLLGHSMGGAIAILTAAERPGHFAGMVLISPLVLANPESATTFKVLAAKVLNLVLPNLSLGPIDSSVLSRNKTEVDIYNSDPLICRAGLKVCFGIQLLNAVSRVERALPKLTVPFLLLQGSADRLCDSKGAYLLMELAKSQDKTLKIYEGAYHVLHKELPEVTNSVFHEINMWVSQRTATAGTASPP

[2] = biological target: T1, human monoacylglycerol lipase (hMAGL); test: target-based real-time 1H NMR (chemical shift perturbation, covalent adduct formation and reactivation; residence time […] h); IC50 on recombinant hMAGL also printed; type: biochemical; details: cited from earlier work

Substance	target-based real-time 1H NMR (chemical shift perturbation, covalent adduct form) [1] [h]	IC50 [2] [nM]
AM4301	1.4	
AM9928		8.9
